# Results as given in patent publication US20210137886A1, “INHIBITORS OF METALLO-BETA-LACTAMASES” (Oxford University Innovation Limited, priority 2017, published 2021).
# Legend:
# [1] = biological target: VIM-2 (Veronese metallo-β-lactamase-2) (Escherichia coli, UniProt Q5U7L7); assay: Metallo-β-lactamase enzyme inhibition, standard assay protocol
# IMP-1 (Imipenemase-1) = IMP-1 (Imipenemase-1) (Serratia marcescens, UniProt P52699); assay: as above
# [2] = biological target: NDM-1 (New Delhi metallo-β-lactamase-1) (Klebsiella pneumoniae, UniProt C7C422); assay: as above
# Chain of NDM-1 (New Delhi metallo-β-lactamase-1) (C7C422 29-270, looked up, species assumed): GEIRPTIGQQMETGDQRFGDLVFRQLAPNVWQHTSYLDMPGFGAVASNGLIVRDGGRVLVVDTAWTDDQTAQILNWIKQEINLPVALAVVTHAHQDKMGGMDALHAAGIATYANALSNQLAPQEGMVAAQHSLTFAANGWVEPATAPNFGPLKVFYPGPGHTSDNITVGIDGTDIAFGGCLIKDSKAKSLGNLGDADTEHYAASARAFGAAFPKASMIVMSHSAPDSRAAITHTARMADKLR
# [3] = biological target: VIM-1 (Veronese metallo-β-lactamase-1) (Pseudomonas aeruginosa, UniProt A0A0F7KYQ8); assay: as above
# [4] = tested on: Klebsiella pneumoniae IMP-4; assay: Meropenem MIC, CLSI broth or agar microdilution, strain entry 1; assay type: cell-based
# E. coli IMP-4 = assay: Meropenem MIC, CLSI broth or agar microdilution, strain entry 2; assay type: cell-based
# E. coli VIM-1 = assay: Meropenem MIC, CLSI broth or agar microdilution, strain entry 3; assay type: cell-based; conditions: for Change in MIC value of meropenem: strain entry 3, E. coli VIM-1
# Description: (§1) In each case DMSO was used to dissolve inhibitors.
# [5] = tested on: Klebsiella pneumoniae VIM-1; assay: Meropenem MIC, CLSI broth or agar microdilution, strain entry 4; assay type: cell-based
# [6] = tested on: Pseudomonas aeruginosa VIM-2; assay: Meropenem MIC, CLSI broth or agar microdilution, strain entry 5; assay type: cell-based; conditions: for Change in MIC value of meropenem: strain entry 5, Pseudomonas aeruginosa VIM-2
# Description: as §1
# [7] = tested on: Klebsiella pneumoniae NDM-1; assay: Meropenem MIC, CLSI broth or agar microdilution, strain entry 6; assay type: cell-based; conditions: for Change in MIC value of meropenem: strain entry 6, Klebsiella pneumoniae NDM-1
# Description: as §1
# [8] = tested on: Klebsiella pneumoniae NDM-1 + DHA + CTX − M-15; assay: Meropenem MIC, CLSI broth or agar microdilution, strain entry 7; assay type: cell-based
# Chain of IMP-1 (Imipenemase-1) (P52699 19-246, looked up, species assumed): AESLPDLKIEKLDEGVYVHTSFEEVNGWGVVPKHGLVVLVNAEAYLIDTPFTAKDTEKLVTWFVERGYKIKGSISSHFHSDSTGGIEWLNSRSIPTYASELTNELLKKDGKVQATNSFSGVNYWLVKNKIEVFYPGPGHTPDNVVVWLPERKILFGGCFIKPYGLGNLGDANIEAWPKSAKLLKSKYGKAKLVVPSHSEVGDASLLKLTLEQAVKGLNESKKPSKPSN
smiles,measurement,setting,value
"O=C(O)c1[nH]c2c(Br)csc2c1-c1cc(Cl)cc(Cl)c1 [Example 1, 3-bromo-6-(3,5-dichlorophenyl)-4H-thieno[3,2-b]pyrrole-5-carboxylic acid]",IC50,[1],39.8 nM
same,IC50,IMP-1 (Imipenemase-1),1000 nM
same,IC50,[2],63.1 nM
same,IC50,[3],631 nM
"O=C(O)c1[nH]c2c(C3CC3)csc2c1-c1cc(Cl)cc(Cl)c1 [Example 2, 3-cyclopropyl-6-(3,5-dichlorophenyl)-4H-thieno[3,2-b]pyrrole-5-carboxylic acid]",Change in MIC value of meropenem,[4]; 2 mg/L inhibitor,−2 log2 difference
same,Change in MIC value of meropenem,[4]; 4 mg/L inhibitor,−2 log2 difference
same,Change in MIC value of meropenem,[4]; 8 mg/L inhibitor,−2 log2 difference
same,Change in MIC value of meropenem,E. coli IMP-4; 2 mg/L inhibitor,−2 log2 difference
same,Change in MIC value of meropenem,E. coli IMP-4; 4 mg/L inhibitor,−2 log2 difference
same,Change in MIC value of meropenem,E. coli IMP-4; 8 mg/L inhibitor,−3 log2 difference
same,Change in MIC value of meropenem,E. coli VIM-1; 2 mg/L inhibitor,−1 log2 difference
same,Change in MIC value of meropenem,E. coli VIM-1; 4 mg/L inhibitor,−1 log2 difference
same,Change in MIC value of meropenem,E. coli VIM-1; 8 mg/L inhibitor,−1 log2 difference
same,Change in MIC value of meropenem,[5]; 2 mg/L inhibitor,−2 log2 difference
same,Change in MIC value of meropenem,[5]; 4 mg/L inhibitor,−2 log2 difference
same,Change in MIC value of meropenem,[5]; 8 mg/L inhibitor,−2 log2 difference
same,Change in MIC value of meropenem,[6]; 2 mg/L inhibitor,0 log2 difference
same,Change in MIC value of meropenem,[6]; 4 mg/L inhibitor,0 log2 difference
same,Change in MIC value of meropenem,[6]; 8 mg/L inhibitor,0 log2 difference
same,Change in MIC value of meropenem,[7]; 2 mg/L inhibitor,−1 log2 difference
same,Change in MIC value of meropenem,[7]; 4 mg/L inhibitor,−1 log2 difference
same,Change in MIC value of meropenem,[7]; 8 mg/L inhibitor,−2 log2 difference
same,Change in MIC value of meropenem,[8]; 2 mg/L inhibitor,−1 log2 difference
same,Change in MIC value of meropenem,[8]; 4 mg/L inhibitor,−2 log2 difference
same,Change in MIC value of meropenem,[8]; 8 mg/L inhibitor,−3 log2 difference
same,IC50,[1],5.01 nM
same,IC50,IMP-1 (Imipenemase-1),79.4 nM
same,IC50,[2],15.8 nM
same,IC50,[3],126 nM
"O=C(O)c1cc2scc(Br)c2[nH]1 [Example 3, 3-bromo-4H-thieno[3,2-b]pyrrole-5-carboxylic acid]",IC50,[1],15800 nM
same,IC50,IMP-1 (Imipenemase-1),> 251000 nM
same,IC50,[2],126000 nM
same,IC50,[3],> 251000 nM
"O=C(O)c1[nH]c2c(Br)csc2c1-c1ccc(F)cc1 [Example 4, 3-Bromo-6-(4-fluorophenyl)-4H-thieno-[3,2-b]pyrrole-5-carboxylic acid]",IC50,[1],316 nM
same,IC50,IMP-1 (Imipenemase-1),2510 nM
same,IC50,[2],200 nM
same,IC50,[3],5010 nM
"O=C(O)c1[nH]c2c(-c3ccc(F)cc3)csc2c1-c1ccc(F)cc1 [Example 5, 3,6-Bis(4-fluorophenyl)-4H-thieno-[3,2-b]pyrrole-5-carboxylic acid]",IC50,[1],10000 nM
same,IC50,IMP-1 (Imipenemase-1),2510 nM
same,IC50,[2],12600 nM
same,IC50,[3],> 39800 nM
"C=C(C)c1csc2c(-c3ccc(F)cc3)c(C(=O)O)[nH]c12 [Example 6, 3-isopropenyl-6-(4-fluorophenyl)-4H-thieno-[3,2-b]pyrrole-5-carboxylic acid]",Change in MIC value of meropenem,[4]; 2 mg/L inhibitor,−2 log2 difference
same,Change in MIC value of meropenem,[4]; 4 mg/L inhibitor,−2 log2 difference
same,Change in MIC value of meropenem,[4]; 8 mg/L inhibitor,−2 log2 difference
same,Change in MIC value of meropenem,E. coli IMP-4; 2 mg/L inhibitor,−2 log2 difference
same,Change in MIC value of meropenem,E. coli IMP-4; 4 mg/L inhibitor,−2 log2 difference
same,Change in MIC value of meropenem,E. coli IMP-4; 8 mg/L inhibitor,−2 log2 difference
same,Change in MIC value of meropenem,E. coli VIM-1; 2 mg/L inhibitor,−1 log2 difference
same,Change in MIC value of meropenem,E. coli VIM-1; 4 mg/L inhibitor,0 log2 difference
same,Change in MIC value of meropenem,E. coli VIM-1; 8 mg/L inhibitor,−1 log2 difference
same,Change in MIC value of meropenem,[5]; 2 mg/L inhibitor,−1 log2 difference
same,Change in MIC value of meropenem,[5]; 4 mg/L inhibitor,−1 log2 difference
same,Change in MIC value of meropenem,[5]; 8 mg/L inhibitor,0 log2 difference
same,Change in MIC value of meropenem,[6]; 2 mg/L inhibitor,0 log2 difference
same,Change in MIC value of meropenem,[6]; 4 mg/L inhibitor,0 log2 difference
same,Change in MIC value of meropenem,[6]; 8 mg/L inhibitor,0 log2 difference
same,Change in MIC value of meropenem,[7]; 2 mg/L inhibitor,−1 log2 difference
same,Change in MIC value of meropenem,[7]; 4 mg/L inhibitor,−1 log2 difference
same,Change in MIC value of meropenem,[7]; 8 mg/L inhibitor,−1 log2 difference
same,Change in MIC value of meropenem,[8]; 2 mg/L inhibitor,−1 log2 difference
same,Change in MIC value of meropenem,[8]; 4 mg/L inhibitor,−1 log2 difference
same,Change in MIC value of meropenem,[8]; 8 mg/L inhibitor,−1 log2 difference
same,IC50,[1],126 nM
same,IC50,IMP-1 (Imipenemase-1),501 nM
same,IC50,[2],39.8 nM
same,IC50,[3],631 nM
"CC(C)c1csc2cc(C(=O)O)[nH]c12 [Example 7, 3-isopropyl-4H-thieno[3,2-b]pyrrole-5-carboxylic acid]",IC50,[1],20000 nM
same,IC50,IMP-1 (Imipenemase-1),> 63100 nM
same,IC50,[2],39800 nM
same,IC50,[3],> 251000 nM
"O=C(O)c1cc2scc(C3CC3)c2[nH]1 [Example 8, 3-cyclopropyl-4H-thieno[3,2-b]pyrrole-5-carboxylic acid]",IC50,[1],39800 nM
same,IC50,IMP-1 (Imipenemase-1),> 251000 nM
same,IC50,[2],126000 nM
same,IC50,[3],> 251000 nM
"CC(=O)Nc1cccc(-c2c(C(=O)O)[nH]c3c(Br)csc23)c1 [Example 9, 6-(3-acetamidophenyl)-3-bromo-4H-thieno[3,2-b]pyrrole-5-carboxylic acid]",IC50,[1],50.1 nM
same,IC50,IMP-1 (Imipenemase-1),12600 nM
same,IC50,[2],316 nM
same,IC50,[3],1580 nM
"CS(=O)(=O)Cc1ccc(-c2c(C(=O)O)[nH]c3c(C4CC4)csc23)cc1Cl [Example 18, 6-(3-chloro-4-((methylsulfonyl)methyl)phenyl)-3-cyclopropyl-4H-thieno[3,2-b]pyrrole-5-carboxylic acid]",Change in MIC value of meropenem,[4]; 2 mg/L inhibitor,0 log2 difference
same,Change in MIC value of meropenem,[4]; 4 mg/L inhibitor,0 log2 difference
same,Change in MIC value of meropenem,[4]; 8 mg/L inhibitor,0 log2 difference
same,Change in MIC value of meropenem,E. coli IMP-4; 2 mg/L inhibitor,0 log2 difference
same,Change in MIC value of meropenem,E. coli IMP-4; 4 mg/L inhibitor,0 log2 difference
same,Change in MIC value of meropenem,E. coli IMP-4; 8 mg/L inhibitor,0 log2 difference
same,Change in MIC value of meropenem,E. coli VIM-1; 2 mg/L inhibitor,−1 log2 difference
same,Change in MIC value of meropenem,E. coli VIM-1; 4 mg/L inhibitor,−1 log2 difference
same,Change in MIC value of meropenem,E. coli VIM-1; 8 mg/L inhibitor,−1 log2 difference
same,Change in MIC value of meropenem,[5]; 2 mg/L inhibitor,−3 log2 difference
same,Change in MIC value of meropenem,[5]; 4 mg/L inhibitor,−2 log2 difference
same,Change in MIC value of meropenem,[5]; 8 mg/L inhibitor,−3 log2 difference
same,Change in MIC value of meropenem,[6]; 2 mg/L inhibitor,0 log2 difference
same,Change in MIC value of meropenem,[6]; 4 mg/L inhibitor,0 log2 difference
same,Change in MIC value of meropenem,[6]; 8 mg/L inhibitor,0 log2 difference
same,Change in MIC value of meropenem,[7]; 2 mg/L inhibitor,0 log2 difference
same,Change in MIC value of meropenem,[7]; 4 mg/L inhibitor,0 log2 difference
same,Change in MIC value of meropenem,[7]; 8 mg/L inhibitor,0 log2 difference
same,Change in MIC value of meropenem,[8]; 2 mg/L inhibitor,−2 log2 difference
same,Change in MIC value of meropenem,[8]; 4 mg/L inhibitor,−2 log2 difference
same,Change in MIC value of meropenem,[8]; 8 mg/L inhibitor,−2 log2 difference
"C[C@@H](O)[C@H]1C(=O)N2C(C(=O)O)=C(S[C@@H]3CN[C@H](C(=O)N(C)C)C3)[C@H](C)[C@H]12 [meropenem, reference compound]",MIC,"E. coli VIM-1; Escherichia coli, VIM1, read-out: MER MIC",0.25 µg/mL
same,MIC,"[6]; Pseudomonas aeruginosa, VIM2, read-out: MER MIC",32 µg/mL
same,MIC,"[7]; Klebsiella pneumoniae, NDM1, read-out: MER MIC",> 128 µg/mL
